A word on the mortality: it is the percentage killed.

Assay type in all cases: in vivo
Experiment [1] has as its system Rhipicephalus (Boophilus) microplus larvae (strain Parkhurst, resistant against synthetic pyrethroids). As to the kind of experiment: Rhipicephalus (Boophilus) microplus in-vitro contact test, larval cattle tick. The settings on record: after 48 hours, read-out: efficacy (larvae dead or moribund); for pest or weed control at 1 µg/cm2, 100 g/ha: 1 μg/cm^2 (=100 g/ha); for pest or weed control at 5 µg/cm2, 500 g/ha: 5 μg/cm^2 (=500 g/ha). The procedure:
Rhipicephalus (Boophilus) microplus—In-Vitro Contact Tests Larval Cattle Tick (Strain Parkhurst, Resistant Against Synthetic Pyrethroids)
9 mg compound is solved in 1 mL acetone and diluted with acetone to the desired concentration. […] the test solution is filled in 25 mL glass test tubes and homogeneously distributed on the inner walls by rotation and tilting on a shaking device (2 h at 30 rpm). With a compound concentration of 900 ppm, an inner surface of 44.7 cm^2 and a homogeneous distribution, a dose of 5 μg/cm^2 is achieved.
After the solvent has evaporated, each test tube is filled with 20-50 cattle tick larvae (Rhipicephalus microplus), closed with a perforated lid and incubated in a horizontal position at 85% relative humidity and 27° C. in an incubator. After 48 hours efficacy is determined. The larvae are patted on the ground of the tubes and negative geotactic behaviour is recorded.
An efficacy of 100% means all larvae are dead or moribund; 0% means no larvae are dead or moribund.

Experiment [2] has as its system larvae of the banded cucumber beetle (Diabrotica balteata). The experiment in a line: Diabrotica balteata spray test. Particulars: 168 h, after 7 days, read-out: efficacy (seedling growth); for pest or weed control at 32 µg/disc, 100 g/ha: 100 g/ha (=32 μg/well); for pest or weed control at 6.4 µg/disc, 20 g/ha: 20 g/ha (=6.4 μg/well). How it is done:
Diabrotica balteata—Spray Test
Solvent: 78.0 parts by weight of acetone • • 1.5 parts by weight of dimethylformamide
(§1) Emulsifier: alkylarylpolyglycol ether
To produce a suitable preparation of active compound, 1 part by weight of active compound is mixed with the stated amount of solvent, and the concentrate is diluted with water, containing an emulsifier concentration of 1000 ppm, to the desired concentration. Further test concentrations are prepared by dilution with emulsifier containing water.
Soaked wheat seeds (Triticum aestivum) are placed in a multiple well plate filled with agar and some water and are incubated for 1 day to germinate (5 seeds per well). The germinated wheat seeds are sprayed with a test solution containing the desired concentration of the active ingredient. Afterwards each unit is infected with 10-20 larvae of the banded cucumber beetle (Diabrotica balteata).
After 7 days efficacy in % is determined. 100% means all the seedlings have grown up like in the untreated, uninfected control; 0% means none of the seedlings have grown.

Experiment [3] has as its system fall armyworm larvae (Spodoptera frugiperda). The experiment in a line: Spodoptera frugiperda spray test. Particulars: 168 h, maize leaf sections, after 7 days. How it is done:
Spodoptera fruaiperda—Spray Test
Solvent: 78.0 parts by weight acetone • 1.5 parts by weight dimethylformamide
as §1
To produce a suitable preparation of active compound, 1 part by weight of active compound is mixed with the stated amount of solvents and is diluted with water, containing an emulsifier concentration of 1000 ppm, to the desired concentration. Further test concentrations are prepared by dilution with emulsifier containing water.
Maize (Zea mays) leaf sections are sprayed with a preparation of the active ingredient of the desired concentration. Once dry, the leaf sections are infested with fall armyworm larvae (Spodoptera frugiperda).
After 7 days mortality in % is determined. 100% means all caterpillars have been killed and 0% means none of the caterpillars have been killed.

In the case of `CC(NC(=O)c1cncc(C(C)(C)C)c1)c1nccnc1-c1nccs1` (racemic) [Example I-6, (rac)-5-(tert-Butyl)-N-(1-(3-(thiazol-2-yl)pyrazin-2-yl)ethyl)nicotinamide], in experiment [1], the pest or weed control at 1 µg/cm2, 100 g/ha turned out to be 80% and the pest or weed control at 5 µg/cm2, 500 g/ha was found to be 80%.
For `CC(NC(=O)c1cc(C(F)(F)F)cc(C(F)(F)F)c1)c1nccnc1-c1ccc(C(=O)N2CCCC2)cn1` (racemic) [Example I-37, (rac)-N-[1-{3-[5-(Pyrrolidine-1-carbonyl)pyridin-2-yl]pyrazin-2-yl}ethyl]-3,5-bis(trifluoromethyl)benzamide], in experiment [1], the pest or weed control at 1 µg/cm2, 100 g/ha worked out at 100% and the pest or weed control at 5 µg/cm2, 500 g/ha was determined as 100%.
Turning to `CC(NC(=O)c1cc(Cl)cc(C#N)c1)c1nccnc1-c1ccc(C(F)(F)F)cn1` (racemic) [Example I-40, (rac)-3-Chloro-5-cyano-N-[1-{3-[5-(trifluoromethyl)pyridin-2-yl]pyrazin-2-yl}ethyl]benzamide], the pest or weed control at 32 µg/disc, 100 g/ha in experiment [2] was found to be 100%.
Consider `CC(NC(=O)c1cc(Cl)cc(Br)c1)c1nccnc1-c1ccc(C(F)(F)F)cn1` (racemic) [Example I-43, (rac)-3-Bromo-5-chloro-N-[1-{3-[5-(trifluoromethyl)pyridin-2-yl]pyrazin-2-yl}ethyl]benzamide], for which the pest or weed control at 32 µg/disc, 100 g/ha in experiment [2] turned out to be 80%.
As for `CC(NC(=O)c1cc(Br)cc(OC(F)(F)F)c1)c1nccnc1-c1ccc(C(F)(F)F)cn1` (racemic) [Example I-44, (rac)-3-Bromo-5-(trifluoromethoxy)-N-[1-{3-[5-(trifluoromethyl)pyridin-2-yl]pyrazin-2-yl}ethyl]benzamide], the pest or weed control at 32 µg/disc, 100 g/ha in experiment [2] turned out to be 100%.
Turning to `CC(NC(=O)c1cc(C(F)(F)F)cc(C(F)(F)F)c1)c1nccnc1-c1ccc(C(F)(F)F)cn1` (racemic) [Example I-45, (rac)-3,5-Bis(trifluoromethyl)-N-[1-{3-[5-(trifluoromethyl)pyridin-2-yl]pyrazin-2-yl}ethyl]benzamide], the mortality at 100 g/ha in experiment [3] came out at 100%.
Same read-out and setting: next, `CC(NC(=O)c1cc(Cl)cc(OC(F)(F)F)c1)c1nccnc1-c1ccc(C(F)(F)F)cn1` (racemic) [Example I-47, (rac)-3-Chloro-5-(trifluoromethoxy)-N-[1-{3-[5-(trifluoromethyl)pyridin-2-yl]pyrazin-2-yl}ethyl]benzamide]: 100%.
With `CC(NC(=O)c1cc(Cl)cc(C#N)c1)c1nccnc1-c1nccs1` (racemic) [Example I-57, (rac)-3-Chloro-5-cyano-N-{1-[3-(1,3-thiazol-2-yl)pyrazin-2-yl]ethyl}benzamide], in experiment [2], the pest or weed control at 6.4 µg/disc, 20 g/ha amounted to 80%.
As for `CC(NC(=O)c1cc(Cl)cc(OC(F)(F)F)c1)c1nccnc1-c1ncc(C(=O)N2CCOCC2)s1` (racemic) [Example I-60, (rac)-3-Chloro-N-[1-{3-[5-(morpholine-4-carbonyl)-1,3-thiazol-2-yl]pyrazin-2-yl}ethyl]-5-(trifluoromethoxy)benzamide], the mortality at 100 g/ha in experiment [3] amounted to 83%.
`CC(NC(=O)c1cc(C(F)(F)F)cc(C(F)(F)F)c1)c1nccnc1-c1ncc(C(=O)N2CCC[Si](C)(C)C2)s1` (racemic) [Example I-70, (rac)-N-[1-{3-[5-(3,3-Dimethyl-1,3-azasilinane-1-carbonyl)-1,3-thiazol-2-yl]pyrazin-2-yl}ethyl]-3,5-bis(trifluoromethyl)benzamide]: the pest or weed control at 32 µg/disc, 100 g/ha in experiment [2] stood at 100%.
Turning to `CC(NC(=O)c1cc(C(F)(F)F)cc(C(F)(F)F)c1)c1nccnc1-c1ncc(C(=O)N2CCCC2)s1` (racemic) [Example I-71, (rac)-N-[1-{3-[5-(Pyrrolidine-1-carbonyl)-1,3-thiazol-2-yl]pyrazin-2-yl}ethyl]-3,5-bis(trifluoromethyl)benzamide], in experiment [2], the pest or weed control at 6.4 µg/disc, 20 g/ha is 100% and the pest or weed control at 32 µg/disc, 100 g/ha was found to be 100%.
`Cc1cnc(-c2ncc(C(=O)N(C)CC3CC3)s2)c(C(C)NC(=O)c2cc(C(F)(F)F)cc(C(F)(F)F)c2)n1` (racemic) [Example I-73, (rac)-2-(3-{1-[3,5-Bis(trifluoromethyl)benzamido]ethyl}-5-methylpyrazin-2-yl)-N-(cyclopropylmethyl)-N-methyl-1,3-thiazole-5-carboxamide] registered a mortality at 100 g/ha in experiment [3] of 100%.
On to `CC(NC(=O)c1cc(C(F)(F)F)cc(C(F)(F)F)c1)c1nccnc1-n1cc(C(=O)N2CCCC2)cn1` (racemic) [Example I-91, N-[(rac)-1-{3-[4-(Pyrrolidine-1-carbonyl)-1H-pyrazol-1-yl]pyrazin-2-yl}ethyl]-3,5-bis(trifluoromethyl)benzamide], for which, in experiment [1], the pest or weed control at 1 µg/cm2, 100 g/ha was 100% and the pest or weed control at 5 µg/cm2, 500 g/ha is 100%.
Take `CC(NC(=O)c1cc(C(F)(F)F)cc(C(F)(F)F)c1)c1nccnc1-n1cc(Cl)cn1` (racemic) [Example I-96, N-{(rac)-1-[3-(4-Chloro-1H-pyrazol-1-yl)pyrazin-2-yl]ethyl}-3,5-bis(trifluoromethyl)benzamide]: in experiment [2], the pest or weed control at 6.4 µg/disc, 20 g/ha came to 100% and the pest or weed control at 32 µg/disc, 100 g/ha amounted to 100%.
As for `CC(NC(=O)c1cc(Br)cc(OC(F)(F)F)c1)c1nccnc1-n1cc(Cl)cn1` (racemic) [Example I-97, (rac)-3-Bromo-N-{1-[3-(4-chloro-1H-pyrazol-1-yl)pyrazin-2-yl]ethyl}-5-(trifluoromethoxy)benzamide], in experiment [2], the pest or weed control at 32 µg/disc, 100 g/ha was determined as 100%.
Take `CC(NC(=O)c1cc(Cl)cc(OC(F)(F)F)c1)c1nccnc1-n1cc(C#N)cn1` (racemic) [Example I-104, (rac)-3-Chloro-N-{1-[3-(4-cyano-1H-pyrazol-1-yl)pyrazin-2-yl]ethyl}-5-(trifluoromethoxy)benzamide]: in experiment [2], the pest or weed control at 6.4 µg/disc, 20 g/ha worked out at 100% and the pest or weed control at 32 µg/disc, 100 g/ha is 100%.
With `CC(NC(=O)c1cc(Br)cc(I)c1)c1nccnc1-n1cc(C#N)cn1` (racemic) [Example I-112, (rac)-3-Bromo-N-{1-[3-(4-cyano-1H-pyrazol-1-yl)pyrazin-2-yl]ethyl}-5-iodobenzamide], the pest or weed control at 32 µg/disc, 100 g/ha in experiment [2] worked out at 100%.
The same measure, in the same setting: next, `CC(NC(=O)c1cc(Cl)cc(C#N)c1)c1nccnc1-n1cc(C#N)cn1` (racemic) [Example I-121, (rac)-3-Chloro-5-cyano-N-{1-[3-(4-cyano-1H-pyrazol-1-yl)pyrazin-2-yl]ethyl}benzamide]: 100%.
For `Cc1cnc(C(C)NC(=O)c2cc(C(F)(F)F)cc(C(F)(F)F)c2)c(-c2ncc(C(=O)N3C[C@@H](C)O[C@@H](C)C3)s2)n1` (mixture of isomers) [Example I-126, (rac)-N-[1-(3-{5-[cis-2,6-Dimethylmorpholine-4-carbonyl]-1,3-thiazol-2-yl}-5-methylpyrazin-2-yl)ethyl]-3,5-bis(trifluoromethyl)benzamide], in experiment [1], the pest or weed control at 1 µg/cm2, 100 g/ha turned out to be 100% and the pest or weed control at 5 µg/cm2, 500 g/ha was 100%. Besides, in experiment [2], the pest or weed control at 32 µg/disc, 100 g/ha came to 100%.
As to `Cc1cnc(-c2ncc(C(=O)N3C[C@@H](C)O[C@@H](C)C3)s2)c(C(C)NC(=O)c2cc(C(F)(F)F)cc(C(F)(F)F)c2)n1` (mixture of isomers) [Example I-127, (rac)-N-[1-(3-{5-[cis-2,6-dimethylmorpholine-4-carbonyl]-1,3-thiazol-2-yl}-6-methylpyrazin-2-yl)ethyl]-3,5-bis(trifluoromethyl)benzamide], in experiment [1], the pest or weed control at 1 µg/cm2, 100 g/ha came out at 100% and the pest or weed control at 5 µg/cm2, 500 g/ha is 100%.
With `CC(NC(=O)c1cc(Cl)cc(C#N)c1)c1nccnc1-c1ccccn1` (stereo not drawn) [Example I-18], the pest or weed control at 32 µg/disc, 100 g/ha in experiment [2] stood at 100%.
As for `COc1ccc(-c2nccnc2C(C)NC(=O)c2cc(C(F)(F)F)cc(C(F)(F)F)c2)nc1` (stereo not drawn) [Example I-26], the pest or weed control at 5 µg/cm2, 500 g/ha in experiment [1] came to 90%. Further, in experiment [2], the pest or weed control at 6.4 µg/disc, 20 g/ha amounted to 100% and the pest or weed control at 32 µg/disc, 100 g/ha is 100%.
For the molecule `COc1ccc(-c2nccnc2C(C)NC(=O)c2cc(Cl)cc(C(F)(F)F)c2)nc1` (stereo not drawn) [Example I-29], the pest or weed control at 5 µg/cm2, 500 g/ha in experiment [1] was found to be 90%. In experiment [2], the pest or weed control at 6.4 µg/disc, 20 g/ha amounted to 100% and the pest or weed control at 32 µg/disc, 100 g/ha came to 100%.
